Assay results taken from patent US20260091050A1, “ADVANTAGEOUS ANTI-HCV COMBINATION THERAPY” (Atea Pharmaceuticals, Inc., priority 2021, published 2026).
Several values for one entry are separate records, joined by “and”; a condition that tells them apart may be missing. Equal values may be shown once.

Key:
[1] = Stability under refrigerator conditions (5 ± 3° C.) of Compound 1-A over 9 months; type: physicochemical
Procedure: Three conditions were tested: accelerated stability (40±2° C./[…]) over a 6-month time period, ambient stability (25±2° C./[…]) over a 9-month period, and stability under refrigerator conditions (5±3° C.) over a 9-month time period. The results for accelerated stability, ambient stability, and refrigerator conditions are shown in Table 23, Table 24, and Table 25, respectively.

GT1 HCV = experiment: Single ascending dose study of Compound 1-A in GT1-HCV infected patients (Part B); type: in vivo, human; details: for Mean Max Reduction of HCV RNA from baseline: GT1b HCV patients
Procedure: Subjects in Part B received a single dose of Compound 1-A in the fasting state. Patients were confined to the clinic from Day −1 to Day 6.
Part B was initiated after the safety (through Day 5) and plasma pharmacokinetic (through 24 h) data review from Cohort 3a in Part A. Available safety data (through Day 5) and pharmacokinetic data (through 24 h) was reviewed for the first cohort in Part B (Cohort 1b) before enrolling subsequent Part B cohorts. Subsequent Part B cohorts were only dosed following review of available safety and pharmacokinetic data from the respective doses in Part A as well as available safety (through Day 5) from the prior Part B cohorts.
Patients infected with HCV were treatment-naïve, non-cirrhotic GT1-infected subjects with a viral load of ≥5 log10 IU/mL.
Baseline was defined as the mean of Day −1 and Day 1 (pre-dose). […] The mean maximum HCV RNA reduction 24 hours post-dose following a single 300 mg dose was 1.7 log10 IU/mL and this compares to a −2 log 10 IU/mL reduction after 1 day of 400 mg of sofosbuvir monotherapy in GT1a HCV-infected subjects. The mean maximum HCV RNA reduction 24 hours post-dose following a single 100 mg dose was 0.8 log10 IU/mL. The mean 10 maximum HCV RNA reduction was 2.2 log10 IU/mL following a single 400 mg dose.

[2] = Single ascending dose study of Compound 1-A in healthy volunteers (Part A); type: in vivo, human
Procedure: Compound 1-A was tested in a single ascending dose (SAD) study to measure its safety, tolerability, and pharmacokinetic in healthy subjects (Part A). Part A was a randomized, double-blind, placebo-controlled SAD study. Healthy subjects in Part A received a single dose of Compound 1-A or placebo in the fasting state. Subjects were confined to the clinic from Day −1 to Day 6.
Dosing in each cohort was staggered such that 2 subjects (1 active:1 placebo) were evaluated for 48 hours after dosing before the remainder of the cohort was dosed. Each cohort received Compound 1-A in ascending order. Dosing of sequential cohorts occurred based on review of available safety data (through Day 5) and plasma pharmacokinetic data (through 24 h) of the prior cohort.
As pharmacokinetic and safety data emerged from prior cohorts, doses evaluated in Cohorts 3a-4a were adjusted by increments no more than 100 mg.
Healthy volunteers in the Part A portion of the study were male and female subjects between the ages of 18 and 65. Active and placebo recipients were pooled within each Part A cohort to preserve the study blind.

[3] = Three-part study (Parts C, D, E) of Compound 1-A: overall safety/tolerability and pharmacokinetics; type: in vivo, human
Procedure: Part C was a randomized, double-blind, placebo-controlled MAD study divided into three cohorts. […] The dose escalation only proceeded following satisfactory review of the data.
HCV-infected patients were treatment-naïve with HCV RNA ≥5 log 10 IU/mL. […] Plasma drug levels were measured using LC-MS/MS.

[4] = Head-to-head comparison of Compound 1 and Compound 1-A in dogs: plasma levels; type: in vivo; details: dog plasma
Procedure: A head-to-head comparison of dogs dosed with Compound 1 and Compound 1-A was conducted.

[5] = Heart and liver tissue levels of active triphosphate 4 hours after oral Compound 1-A, rat; type: in vivo; details: 4 hours after single oral dose
Procedure: High levels of the active TP were measured in the liver of all species tested.

[6] = Plasma levels of Compound 1 and metabolites after single oral dose of Compound 1-A, monkey; type: in vivo; details: for Compound 1 Tmax: Monkey, plasma

SMILES: CNc1nc(N)nc2c1ncn2[C@@H]1O[C@H](CO[P@@](=O)(N[C@@H](C)C(=O)OC(C)C)Oc2ccccc2)[C@@H](O)[C@@]1(C)F [Compound 1-A, isopropyl ((S)-(((2R,3R,4R,5R)-5-(2-amino-6-(methylamino)-9H-purin-9-yl)-4-fluoro-3-hydroxy-4-methyltetrahydrofuran-2-yl)methoxy) (phenoxy)phosphoryl)-L-alaninate hemisulfate]
- Appearance ([1]; 5 ± 3° C., 0 month): White
- Assay ([1]; 5 ± 3° C., 0 month): 98.8%
- IR ([1]; 5 ± 3° C., 0 month): correspond
- Related Substance 1 Any other single impurity ([1]; 5 ± 3° C., 0 month): 0.01%
- Related Substance 1 Total Impurities ([1]; 5 ± 3° C., 0 month): 0.01%
- Water ([1]; 5 ± 3° C., 0 month): 0.45%
- Appearance ([1]; 5 ± 3° C., 1st month): White
- Assay ([1]; 5 ± 3° C., 1st month): 101.1%
- Related Substance 1 Any other single impurity ([1]; 5 ± 3° C., 1st month): 0.01%
- Related Substance 1 Total Impurities ([1]; 5 ± 3° C., 1st month): 0.01%
- Water ([1]; 5 ± 3° C., 1st month): 0.19%
- Appearance ([1]; 5 ± 3° C., 3rd month): White
- Assay ([1]; 5 ± 3° C., 3rd month): 100.2%
- IR ([1]; 5 ± 3° C., 3rd month): correspond
- Related Substance 1 Any other single impurity ([1]; 5 ± 3° C., 3rd month): 0.01%
- Related Substance 1 Impurity B ([1]; 5 ± 3° C., 3rd month): 0.01%
- Related Substance 1 Total Impurities ([1]; 5 ± 3° C., 3rd month): 0.03%
- Water ([1]; 5 ± 3° C., 3rd month): 0.32%
- Appearance ([1]; 5 ± 3° C., 6th month): White
- Assay ([1]; 5 ± 3° C., 6th month): 98.6%
- IR ([1]; 5 ± 3° C., 6th month): correspond
- Related Substance 1 Any other single impurity ([1]; 5 ± 3° C., 6th month): 0.01%
- Related Substance 1 Total Impurities ([1]; 5 ± 3° C., 6th month): 0.03%
- Water ([1]; 5 ± 3° C., 6th month): 0.42%
- Appearance ([1]; 5 ± 3° C., 9th month): Off-white
- Assay ([1]; 5 ± 3° C., 9th month): 101.4%
- IR ([1]; 5 ± 3° C., 9th month): correspond
- Related Substance 1 Any other single impurity ([1]; 5 ± 3° C., 9th month): 0.01%
- Related Substance 1 Total Impurities ([1]; 5 ± 3° C., 9th month): 0.01%
- Water ([1]; 5 ± 3° C., 9th month): 0.32%
- total impurities of related substance 1 ([1]; after 9 months): 0.0100
- water content ([1]; after 9 months): 0.3200
- Chemical stability (conclusion) ([1]; refrigerator conditions): very chemically stable
- mean maximum HCV RNA reduction (GT1 HCV; 24 hours post-dose, single 100 mg dose): 0.8 log10 IU/mL
- mean maximum HCV RNA reduction (GT1 HCV; 24 hours post-dose, single 300 mg dose, GT1b): 1.7 log10 IU/mL
- Mean Max Reduction of HCV RNA from baseline (GT1 HCV; single dose, Compound 1-A equivalent of 92 mg Compound 1): 0.8 log10 IU/ml
- Mean Max Reduction of HCV RNA from baseline (GT1 HCV; single dose, Compound 1-A equivalent of 275 mg Compound 1): 1.7 log10 IU/ml
- Mean Max Reduction of HCV RNA from baseline (GT1 HCV; single dose, Compound 1-A equivalent of 368 mg Compound 1): 2.2 log10 IU/ml
- Mean Max Reduction of HCV RNA from baseline (GT1 HCV; single dose, Compound 1-A equivalent of 550 mg Compound 1): 2.3 log10 IU/ml
- intensity of adverse effects (GT1 HCV; Part B): mild to moderate
- serious adverse events (GT1 HCV; Part B, GT1-HCV infected patients, single dose): No serious adverse events
- mean maximum HCV RNA reduction (GT1 HCV; single 400 mg dose): 2.2 log10 IU/mL
- individual maximum HCV RNA reductions (GT1 HCV; single 600 mg dose, non-cirrhotic GT1b): 2.1 log10 IU/mL and 2.3 log10 IU/mL and 2.6 log10 IU/mL
- mean maximum HCV RNA reduction (GT1 HCV; single 600 mg dose, non-cirrhotic GT1b (n=3)): 2.3 log10 IU/mL
- time within which the parent is metabolized (GT1 HCV; single oral dose of Compound 1-A, plasma): ≤ 8 h
- intensity of adverse effects [2]: mild to moderate
- serious adverse events ([2]; healthy subjects, single dose): No serious adverse events
- impact of mild hepatic impairment on PK ([3]; based on plasma exposures): did not significantly impact
- low-grade lipid abnormalities (cholesterol and triglyceride increase) ([3]; compared to placebo): higher incidence
- tolerability ([3]; up to 600 mg salt form for seven days): well tolerated
- AUC(0-4 hr) of metabolite 1-7 compared to dosing with Compound 1 [4]: twice as great
- Mean Dose-normalized AUC(0-4 hr) for Compound 1 ([4]; normalized to a dose of 25 mg/kg, 25 mg/kg): 1.0 µM·h
- active TP (metabolite 1-6) level in heart [5]: unquantifiable levels
- active TP (metabolite 1-6) level in liver [5]: High levels
- Compound 1 Tmax ([6]; 30 mg/kg single oral dose): 30 to 120 min
- Compound 1 Tmax ([6]; 100 mg/kg single oral dose): 60 to 120 min
- vomiting (animals affected) ([6]; monkeys, high dose group): ⅕
